From patent US8541381B2, “Process for producing enriched fractions containing up to 100% of bacopasaponins from the plant materials of bacopa species” (Laila Impex, priority 2005, dated 2013) come the findings set out here.

The structures appear in SMILES notation.

The molecule `CC(C)=CC1C[C@@](C)(O[C@@H]2OC[C@H](O)C(O)C2O)C2C3CCC4[C@@]5(C)CC[C@H](O[C@@H]6OC[C@H](O)C(O[C@@H]7OC(CO)[C@@H](O)C(O)C7O)C6O[C@@H]6O[C@@H](CO)C(O)C6O)C(C)(C)C5CC[C@@]4(C)[C@@]34CO[C@@]2(C4)O1` (stereo partly drawn) had a melting point of 248 to 256 °C. The same measure for `CC(C)=C[C@H]1CO[C@]23C[C@]4(CO2)C(CCC2[C@@]5(C)CC[C@H](O[C@@H]6OC(CO)[C@@H](O)C(O[C@@H]7OC(CO)[C@@H](O)C(O)C7O)C6O)C(C)(C)C5CC[C@]24C)C3[C@]1(C)O` (stereo partly drawn): 278 to 282 °C. The result for `CC(C)=CC1C[C@@](C)(O[C@@H]2OC[C@H](O)C(O)C2O)C2C3CCC4[C@@]5(C)CC[C@H](O[C@@H]6OC(CO)[C@@H](O)C(O[C@@H]7OC(CO)[C@@H](O)C(O)C7O)C6O[C@@H]6O[C@@H](CO)C(O)C6O)C(C)(C)C5CC[C@@]4(C)[C@@]34CO[C@@]2(C4)O1` (stereo partly drawn) reads 246 to 258 °C.
